Measured values published in patent publication US20060020014A1, “Method for treating nervous system disorders and conditions” (Wyeth, priority 2004, published 2006).
Several values for one entry are separate records, joined by “and”; a condition that tells them apart may be missing. Identical values can stand only once.

What was measured:
[1] = system: SNL rats, tactile allodynia; experiment: Spinal nerve ligation (SNL) model of neuropathic pain, tactile hypersensitivity (von Frey); assay type: in vivo, rat; conditions: 30 mg/kg IP, 30-300 minutes after administration
Source text: Subjects. Male Sprague-Dawley rats (Indianapolis, Ind.) weighing 150 to 200 g at time of arrival, were individually housed in wire cages in a climate-controlled room. A 12-hour light/dark cycle (lights on at 0630) was in effect, and food and water were available ad libitum.
Surgery—Spinal Nerve Ligation. Rats were anesthetized with 3.5% halothane in O2 at 1 L/min and maintained with 1.5% halothane in O2 during surgery. Ligation of the L5 and L6 nerves was produced by an incision through the left paraspinal muscles. The left L5 and L6 spinal nerves were isolated adjacent to the vertebral column and ligated tightly with 6-0 silk suture just distal to the dorsal root ganglion. The wound was closed in layers using 4-0 silk suture and wound clips. Testing began 7 days after surgery.
Assessment of tactile hypersensitivity. […] Baseline tactile sensitivity was assessed using a series of calibrated von Frey monofilaments (Stoelting; Wood Dale, Ill.) 0 to 3 days before surgery. […] The ability of a single dose of test compound to reverse established hypersensitivity was assessed using a time course procedure. […]
Results are presented as the 50% threshold values (50% threshold in g force) estimated by the Dixon non-parametric test. […] Significant main effects were analyzed further by subsequent least significant difference analysis. […]

[2] = target: human norepinephrine transporter (hNET) (Homo sapiens, UniProt P23975); experiment: cell-based; conditions: hNET function uptake (EC50 in nm), MDCK-Net6 cells, [3H]NE uptake
Procedure: Test compounds were prepared in DMSO (10 mM) and diluted in assay buffer according to test range (1 to 10,000 nM). Twenty-five microliters of assay buffer (maximum NE uptake) or test compound were added directly to triplicate wells containing cells in 200 μl of assay buffer. […] To initiate the NE uptake, [^3H]NE diluted in assay buffer (120 nM final assay concentration) was delivered in 25 μl aliquots to each well and the plates were incubated for 5 minutes (37° C.).

[3] = target: T1, human serotonin transporter (hSERT) (Homo sapiens, UniProt P31645); experiment: Serotonin (5-HT) uptake assay in JAR cells (hSERT function uptake); assay type: cell-based; conditions: [3H]5-HT uptake
T1 construct: The methods for 5-HT functional reuptake using the JAR cell line were modified using a previous literature report; host or cells: JAR (human placental choriocarcinoma), staurosporine-stimulated
Procedure: The methods for 5-HT functional reuptake using the JAR cell line were modified using a previous literature report. […] On day 2, cells were stimulated with staurosporine (40 nM) to increase the expression of the 5-HT transporter. On day 3, cells were removed from the cell incubator two hours prior to assay and maintained at room temperature to equilibrate the growth medium to ambient oxygen concentration. […] Twenty-five microliters of assay buffer (maximum 5-HT uptake) or test compound were added directly to triplicate wells containing cells in 200 μl of assay buffer. The cells were incubated with the compound for 10 minutes (37° C.). […] The cells were incubated with the reaction mixture for 5 minutes at 37° C. The 5-HT uptake reaction was terminated by decanting the assay buffer.

hNET = hNET (Homo sapiens, UniProt P23975); experiment: hNET binding
hSERT = hSERT (Homo sapiens, UniProt P31645); experiment: hSERT binding
[4] = system: OVX rats, tail skin temperature (TST); experiment: Telemetry rat model of ovariectomy-induced thermoregulatory dysfunction (tail skin temperature); assay type: in vivo; conditions: 30 mg/kg sc; for Duration: duration of effect on TST; for Onset: onset of action on TST
Source text: This model has been modified from a previously reported protocol describing estrogen regulation of diurnal tail skin temperature (TST) patterns (Berendsen, et al., European Journal of Pharmacology, 2001, 419(1): 47-54). […] A temperature and physical activity transmitter (PhysioTel TA10TA-F40, Data Sciences International) was implanted subcutaneously in the dorsal scapular region and the tip of the temperature probe was tunneled subcutaneously 2.5 cm beyond the base of the tail. After a 7-day recovery period, TST readings were continuously recorded for the remainder of the study. Tail skin temperature readings were collected from each animal every 5 minutes with values obtained over a 10 second sampling period. The day before test day, an average baseline TST value was calculated for each animal by averaging temperature readings recorded during the 12 hour active (dark) phase. In these studies, animals were dosed approximately 40 minutes prior to the onset of dark cycle.
Statistical analysis: Evaluation of a compound's ability to restore normal lowering of TST in the telemetry model was analyzed using hourly TST values calculated for each animal by averaging the 12 temperature readings obtained every 5 minutes over that recording time. To analyze ΔTST in the telemetry model, a two factors repeated measure ANOVA was performed. The model used for analysis was ΔTST=GRP (group)+HR (hours)+GRP*HR+BASELINE. Thus, the reported least squares means are the expected mean values as if both groups had the same baseline value. Post-hoc tests of hourly GRP*HR samples are t-tests of the difference between groups for each hour. To be conservative, a result was not considered significant unless the p-value was <0.025. All analyses were performed using SAS PROC MIXED (SAS, Carey, N.C.).
Rats were injected subcutaneously with vehicle (2%Tween/0.5% methylcellulose) or 30 mg/kg, sc test compound dissolved in 2%Tween/0.5% methylcellulose. The effect of test compound is measured by evaluating the following parameters in this model: onset of action, duration of effect on TST, maximal change in TST and mean change in TST over the duration of the compound effect.

[5] = system: OVX rats, tail skin temperature (TST); experiment: as above; assay type: in vivo; conditions: 30 mg/kg, sc; p<0.05 compared to vehicle control

Sequence of human norepinephrine transporter (hNET) (P23975 whole entry): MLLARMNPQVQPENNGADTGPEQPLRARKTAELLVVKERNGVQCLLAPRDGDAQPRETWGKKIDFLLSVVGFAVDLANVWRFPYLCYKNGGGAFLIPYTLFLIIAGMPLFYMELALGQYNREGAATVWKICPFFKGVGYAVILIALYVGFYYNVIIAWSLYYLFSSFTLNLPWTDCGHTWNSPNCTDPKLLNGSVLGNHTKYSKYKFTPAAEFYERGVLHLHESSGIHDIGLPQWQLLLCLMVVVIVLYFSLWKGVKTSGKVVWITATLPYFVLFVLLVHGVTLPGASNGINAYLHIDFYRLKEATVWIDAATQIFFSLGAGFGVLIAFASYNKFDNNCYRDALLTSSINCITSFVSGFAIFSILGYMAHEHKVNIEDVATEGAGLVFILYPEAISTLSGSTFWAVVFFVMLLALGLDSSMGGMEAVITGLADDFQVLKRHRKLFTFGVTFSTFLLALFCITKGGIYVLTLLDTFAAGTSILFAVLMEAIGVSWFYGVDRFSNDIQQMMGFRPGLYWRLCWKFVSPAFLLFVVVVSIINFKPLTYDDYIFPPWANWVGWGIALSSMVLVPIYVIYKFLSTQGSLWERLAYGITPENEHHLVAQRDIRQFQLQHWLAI
Sequence of hSERT (P31645 whole entry): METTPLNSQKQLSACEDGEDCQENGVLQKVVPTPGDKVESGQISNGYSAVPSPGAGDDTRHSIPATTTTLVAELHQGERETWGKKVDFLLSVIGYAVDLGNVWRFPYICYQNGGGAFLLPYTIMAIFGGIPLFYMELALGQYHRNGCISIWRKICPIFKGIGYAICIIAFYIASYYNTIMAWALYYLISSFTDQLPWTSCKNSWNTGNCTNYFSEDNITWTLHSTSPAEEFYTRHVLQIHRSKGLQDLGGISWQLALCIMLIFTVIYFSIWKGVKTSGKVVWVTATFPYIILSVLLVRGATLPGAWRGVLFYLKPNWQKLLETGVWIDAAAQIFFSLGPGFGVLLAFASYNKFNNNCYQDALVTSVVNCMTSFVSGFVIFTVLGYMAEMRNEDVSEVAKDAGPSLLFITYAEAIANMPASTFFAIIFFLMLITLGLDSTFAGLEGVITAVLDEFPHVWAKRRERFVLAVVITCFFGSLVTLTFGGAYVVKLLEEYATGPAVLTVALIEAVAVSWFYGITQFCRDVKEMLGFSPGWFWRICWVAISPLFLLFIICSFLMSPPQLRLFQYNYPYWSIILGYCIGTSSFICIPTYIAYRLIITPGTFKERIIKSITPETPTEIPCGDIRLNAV
T1 sequence (P31645 whole entry): as above
Sequence of hNET (P23975 whole entry): as the sequence (P23975 whole entry) above

Clc1ccc(C23CNCC2C3)cc1Cl (racemic) [Racemic 1-(3,4-dichlorophenyl)-3-azabicyclo[3.1.0]hexane, 1-(3,4-dichlorophenyl)-3-azabicyclo[3.1.0]hexane]
Reversal of tactile allodynia in the SNL neuropathic pain model [1]: significantly reverses tactile allodynia

Cc1ccc(C23CNCC2C3)cc1 (racemic) [Racemic 1-(4-methylphenyl)-3-azabicyclo[3.1.0]hexane, 1-(4-methylphenyl)-3-azabicyclo[3.1.0]hexane]
EC50 [2]: 265 nM and 426 nM | EC50 [3]: 736 nM | hNET binding (% I @ 1 μM) (hNET): 71.8 % I | hSERT binding (% I @ 1 μM) (hSERT): 42.8 % I | Activity Index [4]: -10.6 h | Duration [4]: 3.5 h | Onset [4]: 0.5 h | Restoration of normal TST in OVX-induced thermoregulatory dysfunction telemetry model [5]: restores normal TST

Cc1ccc(C23CNCC2C3)cc1 (single isomer, unassigned; (+)) [(+)-1-(4-methylphenyl)-3-azabicyclo[3.1.0]hexane]
Activity Index [4]: -2.99 h | Duration [4]: 3.5 h | Onset [4]: 0.5 h | Restoration of normal TST in OVX-induced thermoregulatory dysfunction telemetry model [5]: restores normal TST
